pIC50, pKd: −log10 of the molar value. Where two headings read alike, the source gives them in different places.
What was measured:
[1] = molecular target: T1, PARP-1 (Homo sapiens (Human), UniProt P09874); conditions: for DC50: read-out: PARP-1 (DC50); for pKd: read-out: PARP-1 (Kd)
Experimental: (§1) Affinity evaluation of the tested compounds and their selectivity with respect to the different PARP isoforms of interest was assessed in a displacement assay.
(§2) The polarization signal can be measured, e.g., by a plate reader such as the Saphire2 (Tecan). The displacement ability of the test compound is in correlation with the compound affinity for the NAD pocket of the enzyme.
(§3) In all of the experiments, the polarization signal was measured using a Saphire2 plate reader (Tecan). Data analysis was performed using Dynafit software. In particular, titration data were fitted to the following equilibria: Enzyme+probe<==>Complex Enzyme-probe, while displacement data were fitted to the following equilibria: Enzyme+probe<==>Complex Enzyme-probe, Enzyme+Compound<==>Complex Enzyme-Compound, whereby binding of probe and compound on the enzyme are mutually exclusive (pure competitive mechanism). Displacement data were also fitted using Excell spreadsheet (Microsoft Inc. Seattle, USA) to a four parameter logistic model (4PL), or Hill-Slope model to calculate DC50s where the DC50 value represents the compound concentration at which the polarization signal is diminished by 50% compared to untreated controls.
(§4) In agreement, affinity binding constants (KD) were determined by fitting with a pure competitive mechanism. KD values, are the average of three independent experiments.

[2] = molecular target: PARP-2 (Homo sapiens (Human), UniProt Q9UGN5); conditions: read-out: PARP-2 (DC50); probe compound P1
Experimental: as §1, §2, §3, §4

[3] = molecular target: PARP-3 (Homo sapiens (Human), UniProt Q9Y6F1); conditions: read-out: PARP-3 (DC50); probe compound P1
PARP-3, sequence (Q9Y6F1 whole entry): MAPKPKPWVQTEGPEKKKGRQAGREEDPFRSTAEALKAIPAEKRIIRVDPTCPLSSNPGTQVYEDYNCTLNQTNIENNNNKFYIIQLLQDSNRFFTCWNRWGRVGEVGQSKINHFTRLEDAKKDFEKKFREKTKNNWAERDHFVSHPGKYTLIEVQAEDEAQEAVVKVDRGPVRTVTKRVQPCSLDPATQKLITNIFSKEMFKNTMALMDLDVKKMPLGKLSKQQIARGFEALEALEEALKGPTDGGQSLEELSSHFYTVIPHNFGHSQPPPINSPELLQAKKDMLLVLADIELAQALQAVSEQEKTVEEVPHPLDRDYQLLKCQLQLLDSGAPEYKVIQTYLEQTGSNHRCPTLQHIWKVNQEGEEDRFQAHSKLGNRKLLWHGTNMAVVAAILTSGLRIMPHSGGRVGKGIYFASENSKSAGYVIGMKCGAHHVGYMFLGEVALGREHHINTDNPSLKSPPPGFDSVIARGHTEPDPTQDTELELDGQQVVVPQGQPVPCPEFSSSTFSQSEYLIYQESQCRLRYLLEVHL
Experimental: as §1, §2, §3, §4

[4] = test system: PAR formation in HeLa cells; experiment: cells; conditions: Homo sapiens, read-out: PAR assay (IC50)
Experimental: Cellular PAR levels were measured by immunocytochemistry, and quantified using an ArrayScan vTi instrument (Cellomics Thermo Scientific). […] Test compounds were then added at the required concentration for 30'. […] After 3 washes in PBS, wells incubated in PBS (w/v) 5% FBS 0.05% Tween20 containing 2 μg/mL Cy2-conjugated Goat anti mouse secondary antibody (Amersham Pharmacia Biotech cat. […] At least 10 fields, corresponding to at least 900 cells, were read for each well. […] X is the logarithm of concentration. IC50 is the response; IC50 starts at Bottom and goes to Top with a sigmoid shape.

[5] = male, Balb, Nu/Nu, mouse, in vivo, 10 mg/kg
Experimental: (§5) The compounds were formulated in 10% tween 80/dextrose for intravenous bolus administration while oral administrations were performed using the compounds formulated in 0.5% methylcellulose. […] Plasma samples were prepared by plasma proteins precipitation adding 200 μL of methanol to 10 μL of plasma in a 96 well plate. […] The supernatant was considered as final extract and injected onto the LC-MS-MS system (HPLC system: Hewlett Packard 1100 series using Atlantis HILIC Silica 50*2.1 mm 5.0 μm analytical column; MS instrument: Perkin Elmer SCIEX API 2000 and ionization performed with Turbo Ion Spray in positive ion mode). Lower limit of quantification is 5.0 ng/mL, upper limit of quantification is 10000 ng/mL. Analysis was performed using the Watson package (version 6.4.0.04) and Excel spreadsheet (Microsoft Inc. Seattle, USA). Non-compartmental method (linear trapezoidal rule and linear regression analysis of natural log-transformed plasma concentrations vs. time data) was used. After intravenous dosing, Co was set equal to Co 083 Absolute bioavailability (F) was calculated from the ratio of average oral to IV (intravenous) dose-normalized plasma AUC (area under curve) values.

[6] = in vivo; conditions: male, Balb, Nu/Nu, mouse, 10 mg/kg; for Vd / clearance: iv; for AUC(0-t) / half-life: po
Experimental: as §5

[7] = molecular target: T1, PARP-1; experiment: biochemical; conditions: PARP-1 (Kd)
Experimental: as §1, §2, §3, §4

[8] = test system: Capan-1 human pancreatic cancer tumors; experiment: In vivo efficacy, Capan-1 BRCA-2 mutated mouse model, single agent; set-up: species or system Balb, athymic Nu/Nu male mice; conditions: oral
Text: (§6) Balb, athymic Nu/Nu male mice, from Harlan (Italy), were maintained in agreement with the European Communities Council Directive no. 86/609/EEC concerning the protection of animals used for experimental or other scientific purposes, in cages with paper filter cover, food and bedding sterilized and acidified water. Fragments of Capan-1 human pancreatic cancer tumors were implanted subcutaneously. […] Each group included seven animals. The treatment started one day after randomization. Compound of formula (I) was administered by oral route as a methocel suspension at the indicated doses and times. Tumor dimension was measured regularly by calipers during the experiments and tumor mass was calculated as described in Simeoni M. et al., Cancer Res 64, 1094-1101 (2004).

[9] = male, Balb, athymic Nu/Nu, mouse, in vivo, po
Text: as §6

[10] = test system: ovarian cancer patients with confirmed BRCA-1 mutations; conditions: phase I, monotherapy, preliminary data; cited from earlier work

PARP-2, sequence (Q9UGN5 whole entry): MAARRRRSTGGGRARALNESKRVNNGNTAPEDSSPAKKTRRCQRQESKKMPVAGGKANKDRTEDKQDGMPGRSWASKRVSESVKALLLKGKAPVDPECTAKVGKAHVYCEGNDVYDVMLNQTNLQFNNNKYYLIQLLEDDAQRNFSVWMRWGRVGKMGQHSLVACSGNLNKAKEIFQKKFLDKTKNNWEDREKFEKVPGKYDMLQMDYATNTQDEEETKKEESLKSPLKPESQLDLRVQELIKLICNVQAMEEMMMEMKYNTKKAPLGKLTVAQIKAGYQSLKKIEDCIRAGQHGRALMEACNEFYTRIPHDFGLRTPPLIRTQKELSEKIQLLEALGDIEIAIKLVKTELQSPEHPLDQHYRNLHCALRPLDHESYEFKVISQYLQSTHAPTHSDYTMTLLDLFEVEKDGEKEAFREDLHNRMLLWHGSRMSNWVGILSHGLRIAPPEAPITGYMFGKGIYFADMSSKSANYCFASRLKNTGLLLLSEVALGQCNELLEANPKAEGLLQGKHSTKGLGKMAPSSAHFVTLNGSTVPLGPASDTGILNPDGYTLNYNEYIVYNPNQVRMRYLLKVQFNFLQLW
T1 sequence (P09874 whole entry): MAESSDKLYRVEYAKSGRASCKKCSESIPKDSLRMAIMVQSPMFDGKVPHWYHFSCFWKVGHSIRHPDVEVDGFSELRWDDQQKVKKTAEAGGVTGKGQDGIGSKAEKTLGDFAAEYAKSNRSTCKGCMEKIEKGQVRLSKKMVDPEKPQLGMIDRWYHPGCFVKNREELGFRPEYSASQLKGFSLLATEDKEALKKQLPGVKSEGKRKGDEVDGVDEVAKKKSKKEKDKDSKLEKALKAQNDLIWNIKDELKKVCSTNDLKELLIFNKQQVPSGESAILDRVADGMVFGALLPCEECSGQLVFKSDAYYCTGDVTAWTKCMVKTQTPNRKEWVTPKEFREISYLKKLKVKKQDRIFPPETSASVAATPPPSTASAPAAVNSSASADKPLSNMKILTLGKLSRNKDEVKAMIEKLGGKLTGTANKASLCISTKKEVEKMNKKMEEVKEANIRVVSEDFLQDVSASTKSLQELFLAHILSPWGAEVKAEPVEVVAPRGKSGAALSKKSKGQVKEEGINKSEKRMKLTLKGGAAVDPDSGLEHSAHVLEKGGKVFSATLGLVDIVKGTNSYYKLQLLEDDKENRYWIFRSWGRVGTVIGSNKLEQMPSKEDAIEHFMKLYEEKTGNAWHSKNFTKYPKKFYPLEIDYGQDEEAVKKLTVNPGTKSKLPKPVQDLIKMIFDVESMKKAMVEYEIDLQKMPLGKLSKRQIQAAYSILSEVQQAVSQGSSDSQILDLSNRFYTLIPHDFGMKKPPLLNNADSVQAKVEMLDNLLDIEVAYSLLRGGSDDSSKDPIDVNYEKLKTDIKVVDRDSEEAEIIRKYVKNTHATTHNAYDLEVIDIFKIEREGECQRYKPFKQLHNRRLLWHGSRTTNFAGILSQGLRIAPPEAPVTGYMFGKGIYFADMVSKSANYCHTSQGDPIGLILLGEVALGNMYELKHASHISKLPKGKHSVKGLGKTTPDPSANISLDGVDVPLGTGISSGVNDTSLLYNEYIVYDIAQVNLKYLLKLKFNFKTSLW

DC50 ([1]; probe compound P1)	pKd ([1]; probe compound P3)	DC50 [2]	DC50 [3]	pIC50 [4]	Compound	further results
5660 nM	6.06	> 10000 nM	> 10000 nM	5.40	CC1(C)c2cc(F)cc(C(N)=O)c2C(=O)N1C1CCN(C2CCCCC2)CC1 [Compound 128, 2-(1-Cyclohexylpiperidin-4-yl)-6-fluoro-1,1-dimethyl-3-oxo-2,3-dihydro-1H-isoindole-4-carboxamide]	
1110 nM		> 10000 nM	> 10000 nM	5.28	CC1c2cccc(C(N)=O)c2C(=O)N1c1ccc(CN2CCCCC2)cc1 (stereo not drawn) [Compound 38, 1-Methyl-3-oxo-2-[4-(piperidin-1-ylmethyl)phenyl]-2,3-dihydro-1H-isoindole-4-carboxamide]	
< 250 nM	7.40	> 10000 nM	> 10000 nM		CC1c2cccc(C(N)=O)c2C(=O)N1C1CCN(CC2CC=CCC2)CC1 (stereo not drawn) [Compound 22, 2-[1-(Cyclohex-3-en-1-ylmethyl)piperidin-4-yl]-1-methyl-3-oxo-2,3-dihydro-1H-isoindole-4-carboxamide]	
410 nM	7.22	> 10000 nM	> 10000 nM	6.19	CC1c2cc(F)cc(C(N)=O)c2C(=O)N1C1CCN(C2CCCCC2)CC1 (stereo not drawn) [Compound 127, 2-(1-Cyclohexylpiperidin-4-yl)-6-fluoro-1-methyl-3-oxo-2,3-dihydro-1H-isoindole-4-carboxamide]	
< 250 nM	7.70	> 10000 nM	3040 nM	5.60	CC1c2cccc(C(N)=O)c2C(=O)N1C1CCN(Cc2ccc[nH]2)CC1 (stereo not drawn) [Compound 19, 1-Methyl-3-oxo-2-[1-(1H-pyrrol-2-ylmethyl)piperidin-4-yl]-2,3-dihydro-1H-isoindole-4-carboxamide]	C-max (oral) [5]: 2.85 µM; Vd [6]: 3.9 L/kg; clearance [6]: 88 mL/min/kg; AUC(0-t) [6]: 4.28 µM·h; half-life [6]: 0.8 h
< 250 nM		> 10000 nM	3860 nM		CC1c2cccc(C(N)=O)c2C(=O)N1C1CCN(Cc2cccs2)CC1 (stereo not drawn) [Compound 20, 1-Methyl-3-oxo-2-[1-(thiophen-2-ylmethyl)piperidin-4-yl]-2,3-dihydro-1H-isoindole-4-carboxamide]	pKd ([7]; probe compound P3): > 8.00
< 250 nM	7.40	> 10000 nM	> 10000 nM	5.31	CC1c2cccc(C(N)=O)c2C(=O)N1c1ccc(N2CCOCC2)cc1 (stereo not drawn) [Compound 35, 1-Methyl-2-[4-(morpholin-4-yl)phenyl]-3-oxo-2,3-dihydro-1H-isoindole-4-carboxamide]	
350 nM	6.77	> 10000 nM	> 10000 nM	5.52	CC1c2cccc(C(N)=O)c2C(=O)N1C1CCN(Cc2ccccn2)CC1 (stereo not drawn) [Compound 9, 1-Methyl-3-oxo-2-[1-(pyridin-2-ylmethyl)piperidin-4-yl]-2,3-dihydro-1H-isoindole-4-carboxamide]	
		> 10000 nM	> 10000 nM	5.20	C[C@@H]1c2cccc(C(N)=O)c2C(=O)N1C1CCN(C2CCCCC2)CC1 [Compound 5, (1R)-2-(1-Cyclohexylpiperidin-4-yl)-1-methyl-3-oxo-2,3-dihydro-1H-isoindole-4-carboxamide]	DC50 [1]: 2110 nM; pKd [1]: 6.11
< 250 nM	7.15	6880 nM	2830 nM		CC1c2cccc(C(N)=O)c2C(=O)N1C1CCN(Cc2ncc[nH]2)CC1 (stereo not drawn) [Compound 26, 2-[1-(1H-Imidazol-2-ylmethyl)piperidin-4-yl]-1-methyl-3-oxo-2,3-dihydro-1H-isoindole-4-carboxamide]	
440 nM	6.60	> 10000 nM	3100 nM		CC1c2cccc(C(N)=O)c2C(=O)N1C1CCN(Cc2cn(C(C)C)c3ccccc23)CC1 (stereo not drawn) [Compound 8, 1-Methyl-3-oxo-2-(1-{[1-(propan-2-yl)-1H-indol-3-yl]methyl}piperidin-4-yl)-2,3-dihydro-1H-isoindole-4-carboxamide]	
< 250 nM	7.10	> 10000 nM	> 10000 nM	5.05	CC1c2cccc(C(N)=O)c2C(=O)N1c1ccc(N2CCCCC2)cc1 (stereo not drawn) [Compound 36, 1-Methyl-3-oxo-2-[4-(piperidin-1-yl)phenyl]-2,3-dihydro-1H-isoindole-4-carboxamide]	
< 250 nM	7.52	> 10000 nM	520 nM	5.15	CC1c2cccc(C(N)=O)c2C(=O)N1C1CCN(Cc2ccc3[nH]ccc3c2)CC1 (stereo not drawn) [Compound 7, 2-[1-(1H-indol-5-ylmethyl)piperidin-4-yl]-1-methyl-3-oxo-2,3-dihydro-1H-isoindole-4-carboxamide]	
< 250 nM		1820 nM	> 10000 nM	5.57	CC1c2cccc(C(N)=O)c2C(=O)N1C1CCN(C2CCC2)CC1 (stereo not drawn) [Compound 18, 2-(1-Cyclobutylpiperidin-4-yl)-1-methyl-3-oxo-2,3-dihydro-1H-isoindole-4-carboxamide]	C-max (oral) [5]: 3.9 µM; Vd [6]: 3.84 L/kg; clearance [6]: 47 mL/min/kg; AUC(0-t) [6]: 7.28 µM·h; half-life [6]: 1.8 h; pKd ([7]; probe compound P3): > 8.00
					O=C(c1cc(Cc2n[nH]c(=O)c3ccccc23)ccc1F)N1CCN(C(=O)C2CC2)CC1 [AZD2281]	partial responses [10]: 4 out of 10
< 250 nM		> 10000 nM	> 10000 nM	6.57	CC1c2cc(F)cc(C(N)=O)c2C(=O)N1C1CCN(C2CCC(F)(F)CC2)CC1 (stereo not drawn) [Compound 126, 2-[1-(4,4-Difluorocyclohexyl)piperidin-4-yl]-6-fluoro-1-methyl-3-oxo-2,3-dihydro-1H-isoindole-4-carboxamide]	
< 250 nM	7.52	> 10000 nM	> 10000 nM	5.89	CC1c2cccc(C(N)=O)c2C(=O)N1C1CCN(C2CCC(F)(F)CC2)CC1 (stereo not drawn) [Compound 6, 2-[1-(4,4-Difluorocyclohexyl)piperidin-4-yl]-1-methyl-3-oxo-2,3-dihydro-1H-isoindole-4-carboxamide]	
< 250 nM	7.40	> 10000 nM	> 10000 nM		CC1c2cccc(C(N)=O)c2C(=O)N1C1CCN(Cc2ccco2)CC1 (stereo not drawn) [Compound 15, 2-[1-(Furan-2-ylmethyl)piperidin-4-yl]-1-methyl-3-oxo-2,3-dihydro-1H-isoindole-4-carboxamide]	

Compound	DC50 ([1]; probe compound P1)	pKd ([1]; probe compound P3)	DC50 [2]	DC50 [3]	pIC50 [4]	further results
C[C@H]1c2cccc(C(N)=O)c2C(=O)N1C1CCN(C2CCCCC2)CC1 [Compound 4, (1S)-2-(1-Cyclohexylpiperidin-4-yl)-1-methyl-3-oxo-2,3-dihydro-1H-isoindole-4-carboxamide]			> 10000 nM	> 10000 nM	6.82	Max TGI (%) ([8]; 75 mg/kg, schedule 1-10 daily): 52%; DC50 [1]: < 250 nM; C-max (oral) [5]: 1.37 µM; Toxicity (body weight reduction, mice affected out of 7 treated) ([9]; 75 mg/kg): 0/7; Vd [6]: 6.8 L/kg; clearance [6]: 53.4 mL/min/kg; AUC(0-t) [6]: 4.93 µM·h; half-life [6]: 2.62 h; pKd [7]: > 8.00
CC1c2cccc(C(N)=O)c2C(=O)N1C1CCN(C2CCCC2)CC1 (stereo not drawn) [Compound 13, 2-(1-Cyclopentylpiperidin-4-yl)-1-methyl-3-oxo-2,3-dihydro-1H-isoindole-4-carboxamide]	< 250 nM	7.30	1460 nM	> 10000 nM	6.30	Max TGI (%) ([8]; 100 mg/kg, schedule 1-20 daily): 18%; C-max (oral) [5]: 3.64 µM; Toxicity (body weight reduction, mice affected out of 7 treated) ([9]; 100 mg/kg): 0/7; Vd [6]: 4.7 L/kg; clearance [6]: 26.7 mL/min/kg; AUC(0-t) [6]: 18.3 µM·h; half-life [6]: 2.9 h
CC1c2cccc(C(N)=O)c2C(=O)N1C1CCN(C2CCCCC2)CC1 (racemic) [Compound 3, 2-(1-Cyclohexylpiperidin-4-yl)-1-methyl-3-oxo-2,3-dihydro-1H-isoindole-4-carboxamide]			> 10000 nM	> 10000 nM	6.55	Max TGI (%) ([8]; 100 mg/kg, schedule 1-10 daily): 51%; DC50 [1]: < 250 nM; C-max (oral) [5]: 2.53 µM; Toxicity (body weight reduction, mice affected out of 7 treated) ([9]; 100 mg/kg): 0/7; Vd [6]: 3.61 L/kg; clearance [6]: 32.6 mL/min/kg; AUC(0-t) [6]: 13.5 µM·h; half-life [6]: 3.04 h; pKd [7]: > 8.00
CC1c2cccc(C(N)=O)c2C(=O)N1C1CCN(CC2CCCCC2)CC1 (stereo not drawn) [Compound 21, 2-[1-(Cyclohexylmethyl)piperidin-4-yl]-1-methyl-3-oxo-2,3-dihydro-1H-isoindole-4-carboxamide]			> 10000 nM	> 10000 nM	5.92	Max TGI (%) ([8]; 100 mg/kg, schedule 1-20 daily): 23%; C-max (oral) [5]: 1.2 µM; Toxicity (body weight reduction, mice affected out of 7 treated) ([9]; 100 mg/kg): 0/7; Vd [6]: 4.9 L/kg; clearance [6]: 23 mL/min/kg; AUC(0-t) [6]: 7.39 µM·h; half-life [6]: 6.6 h
